Reference: patent US20230167073A1 (Teijin Pharma Limited, priority 2020, published 2023)

Target: T1, Human TRPC6 (Homo sapiens, UniProt Q9Y210)
T1 construct: expressed in transfected cells
T1 sequence (Q9Y210 1-931): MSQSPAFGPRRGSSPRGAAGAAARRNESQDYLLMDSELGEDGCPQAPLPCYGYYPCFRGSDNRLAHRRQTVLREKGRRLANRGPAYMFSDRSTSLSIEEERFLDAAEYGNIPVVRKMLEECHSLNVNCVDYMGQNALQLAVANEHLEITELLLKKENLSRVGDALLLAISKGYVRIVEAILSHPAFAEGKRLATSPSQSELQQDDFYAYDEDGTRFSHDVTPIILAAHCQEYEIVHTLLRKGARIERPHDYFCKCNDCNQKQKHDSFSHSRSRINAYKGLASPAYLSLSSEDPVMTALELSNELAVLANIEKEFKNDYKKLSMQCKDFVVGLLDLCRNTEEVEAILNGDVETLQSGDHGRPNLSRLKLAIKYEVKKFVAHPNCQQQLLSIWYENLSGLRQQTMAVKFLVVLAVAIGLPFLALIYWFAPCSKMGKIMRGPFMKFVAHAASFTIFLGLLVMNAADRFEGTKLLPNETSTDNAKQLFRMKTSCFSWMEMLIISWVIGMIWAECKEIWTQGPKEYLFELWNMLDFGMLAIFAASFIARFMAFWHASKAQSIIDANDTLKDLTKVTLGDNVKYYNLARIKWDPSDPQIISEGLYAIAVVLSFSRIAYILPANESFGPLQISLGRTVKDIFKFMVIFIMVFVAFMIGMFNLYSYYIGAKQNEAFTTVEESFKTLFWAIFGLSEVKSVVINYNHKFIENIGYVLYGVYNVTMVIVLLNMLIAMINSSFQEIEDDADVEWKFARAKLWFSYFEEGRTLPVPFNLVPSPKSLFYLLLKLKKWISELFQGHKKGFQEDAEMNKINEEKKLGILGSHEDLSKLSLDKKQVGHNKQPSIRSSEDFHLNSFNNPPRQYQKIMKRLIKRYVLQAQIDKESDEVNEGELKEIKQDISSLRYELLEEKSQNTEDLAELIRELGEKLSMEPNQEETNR
Test: Evaluation of TRPC6 channel inhibitory activity (1), FLIPR Calcium 5 Assay Kit, OAG stimulation (Compound Nos. 1-1293)
Assay type: cell-based
Conditions: Human TRPC6 stably-expressing cells, OAG 30 μM, FLIPR Calcium 5 Assay Kit; read-out: Inhibitory activity (pIC50 class) (converted)
How it was run: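 Readout is pIC50 from four-parameter logistic fitting of inhibition of the OAG-evoked (30 μM final) fluorescence calcium signal. Human TRPC6 stable cells are dye-loaded with probenecid, and compound is applied 20 min ahead of agonist.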

IC50 [nM] | Compound
10 to 1000 | N#Cc1ccc(-c2ccc(CCN)cn2)c(C(=O)c2nnc(N3CCOCC3)o2)c1 [compound 1091, 4-[5-(2-aminoethyl)pyridin-2-yl]-3-(5-morpholin-4-yl-1,3,4-oxadiazole-2-carbonyl)benzonitrile]
10 to 1000 | N#Cc1ccc(-c2ncc(CCN)cn2)c(C(=O)c2nnc(N3CCOCC3)o2)c1 [compound 1092, 4-[5-(2-aminoethyl)pyrimidin-2-yl]-3-(5-morpholin-4-yl-1,3,4-oxadiazole-2-carbonyl)benzonitrile]
> 1000 | N#Cc1ccc(-c2ccc(CN)cn2)c(C(=O)c2nnc(N3CCOCC3)s2)c1 [compound 1093, 4-[5-(aminomethyl)pyridin-2-yl]-3-(5-morpholin-4-yl-1,3,4-thiadiazole-2-carbonyl)benzonitrile]
10 to 1000 | N#Cc1ccc(-c2ccc(CCN)cn2)c(C(=O)c2nnc(N3CCOCC3)s2)c1 [compound 1094, 4-[5-(2-aminoethyl)pyridin-2-yl]-3-(5-morpholin-4-yl-1,3,4-thiadiazole-2-carbonyl)benzonitrile]
> 1000 | N#Cc1ccc(-c2ncc(CN)cn2)c(C(=O)c2nnc(N3CCOCC3)s2)c1 [compound 1095, 4-[5-(aminomethyl)pyrimidin-2-yl]-3-(5-morpholin-4-yl-1,3,4-thiadiazole-2-carbonyl)benzonitrile]
10 to 1000 | N#Cc1ccc(-c2ncc(CCN)cn2)c(C(=O)c2nnc(N3CCOCC3)s2)c1 [compound 1096, 4-[5-(2-aminoethyl)pyrimidin-2-yl]-3-(5-morpholin-4-yl-1,3,4-thiadiazole-2-carbonyl)benzonitrile]
< 10 | Cc1cc(C(=O)c2cc(F)ccc2-c2ncc(CCN)cn2)cc(N2CCOCC2)n1 [compound 1097, [2-[5-(2-aminoethyl)pyrimidin-2-yl]-5-fluorophenyl]-(2-methyl-6-morpholin-4-ylpyridin-4-yl)methanone]
> 1000 | NCCc1cnc(-c2ccc(F)cc2C(=O)c2cnn(CC(F)F)c2)nc1 [compound 1098, [2-[5-(2-aminoethyl)pyrimidin-2-yl]-5-fluorophenyl]-[1-(2,2-difluoroethyl)pyrazol-4-yl]methanone]
> 1000 | NCc1cnc(-c2ccc(F)cc2C(=O)c2cnn(CC(F)F)c2)nc1 [compound 1099, [2-[5-(aminomethyl)pyrimidin-2-yl]-5-fluorophenyl]-[1-(2,2-difluoroethyl)pyrazol-4-yl]methanone]
> 1000 | Cn1cc(C(=O)c2cc(F)ccc2-c2ncc(CCN)cn2)cn1 [compound 1100, [2-[5-(2-aminoethyl)pyrimidin-2-yl]-5-fluorophenyl]-(1-methylpyrazol-4-yl)methanone]
10 to 1000 | NCCc1cnc(-c2ccc(F)cc2C(=O)c2cnn(CC3CC3)c2)nc1 [compound 1101, [2-[5-(2-aminoethyl)pyrimidin-2-yl]-5-fluorophenyl]-[1-(cyclopropylmethyl)pyrazol-4-yl]methanone]
10 to 1000 | CC(C)n1cc(C(=O)c2cc(F)ccc2-c2ncc(CCN)cn2)cn1 [compound 1102, [2-[5-(2-aminoethyl)pyrimidin-2-yl]-5-fluorophenyl]-(1-propan-2-ylpyrazol-4-yl)methanone]
10 to 1000 | Cc1nc(C(=O)c2cc(F)ccc2-c2ncc(CCN)cn2)cc(N2CCOCC2)n1 [compound 1103, [2-[5-(2-aminoethyl)pyrimidin-2-yl]-5-fluorophenyl]-(2-methyl-6-morpholin-4-ylpyrimidin-4-yl)methanone]
> 1000 | Cc1nc(C(=O)c2cc(F)ccc2-c2ncc(CN)cn2)cc(N2CCOCC2)n1 [compound 1104, [2-[5-(aminomethyl)pyrimidin-2-yl]-5-fluorophenyl]-(2-methyl-6-morpholin-4-ylpyrimidin-4-yl)methanone]
10 to 1000 | Cn1nc(N2CCOCC2)cc1C(=O)c1cc(F)ccc1-c1ncc(CN)cn1 [compound 1105, [2-[5-(aminomethyl)pyrimidin-2-yl]-5-fluorophenyl]-(2-methyl-5-morpholin-4-ylpyrazol-3-yl)methanone]
< 10 | Cn1nc(N2CCOCC2)cc1C(=O)c1cc(F)ccc1-c1ccc(CCN)cn1 [compound 1106, [2-[5-(2-aminoethyl)pyridin-2-yl]-5-fluorophenyl]-(2-methyl-5-morpholin-4-ylpyrazol-3-yl)methanone]
< 10 | Cn1nc(N2CCOCC2)cc1C(=O)c1cc(F)ccc1-c1ncc(CCN)cn1 [compound 1107, [2-[5-(2-aminoethyl)pyrimidin-2-yl]-5-fluorophenyl]-(2-methyl-5-morpholin-4-ylpyrazol-3-yl)methanone]
10 to 1000 | NCCc1cnc(-c2ccc(F)cc2C(=O)c2cnn(C3CCC3)c2)nc1 [compound 1108, [2-[5-(2-aminoethyl)pyrimidin-2-yl]-5-fluorophenyl]-(1-cyclobutylpyrazol-4-yl)methanone]
10 to 1000 | NCc1cnc(-c2ccc(F)cc2C(=O)c2cnn(C3CCC3)c2)nc1 [compound 1109, [2-[5-(aminomethyl)pyrimidin-2-yl]-5-fluorophenyl]-(1-cyclobutylpyrazol-4-yl)methanone]
< 10 | NCCc1ccc(-c2ccc(F)cc2C(=O)c2cnn(C3CCC3)c2)nc1 [compound 1110, [2-[5-(2-aminoethyl)pyridin-2-yl]-5-fluorophenyl]-(1-cyclobutylpyrazol-4-yl)methanone]
10 to 1000 | N#Cc1ccc(-c2ccc(CCN)cc2)c(Cn2cnc(-c3ccccc3)c2)c1 [compound 1111, 4-[4-(2-aminoethyl)phenyl]-3-[(4-phenylimidazol-1-yl)methyl]benzonitrile]
> 1000 | N#Cc1ccc(-c2ccc(CCN)cc2)c(Cn2ccc(-c3ccccc3)n2)c1 [compound 1112, 4-[4-(2-aminoethyl)phenyl]-3-[(3-phenylpyrazol-1-yl)methyl]benzonitrile]
> 1000 | CC(C)NC(=O)c1cn(Cc2cc(C#N)ccc2-c2ccc(CCN)cc2)cn1 [compound 1113, 1-[[2-[4-(2-aminoethyl)phenyl]-5-cyanophenyl]methyl]-N-propan-2-ylimidazole-4-carboxamide]
> 1000 | CC(C)CNC(=O)c1cn(Cc2cc(C#N)ccc2-c2ccc(CCN)cc2)cn1 [compound 1114, 1-[[2-[4-(2-aminoethyl)phenyl]-5-cyanophenyl]methyl]-N-(2-methylpropyl)imidazole-4-carboxamide]
> 1000 | CC(C)CNC(=O)c1cncn1Cc1cc(C#N)ccc1-c1ccc(CCN)cc1 [compound 1115, 3-[[2-[4-(2-aminoethyl)phenyl]-5-cyanophenyl]methyl]-N-(2-methylpropyl)imidazole-4-carboxamide]
> 1000 | COCc1cncn1Cc1cc(C#N)ccc1-c1ccc(CCN)cc1 [compound 1116, 4-[4-(2-aminoethyl)phenyl]-3-[[5-(methoxymethyl)imidazol-1-yl]methyl]benzonitrile]
10 to 1000 | CC(C)COCc1cncn1Cc1cc(C#N)ccc1-c1ccc(CCN)cc1 [compound 1117, 4-[4-(2-aminoethyl)phenyl]-3-[[5-(2-methylpropoxymethyl)imidazol-1-yl]methyl]benzonitrile]
> 1000 | COCc1cn(Cc2cc(C#N)ccc2-c2ccc(CCN)cc2)cn1 [compound 1118, 4-[4-(2-aminoethyl)phenyl]-3-[[4-(methoxymethyl)imidazol-1-yl]methyl]benzonitrile]
